Results: patent US6245917A, “Crystalline sodium phenytoin monohydrate” (Warner-Lambert Company, priority 1999, dated 2001)

Test: Repeated water uptake study with solvent-free SPM (dichloromethane preparation)
Assay type: physicochemical
From the text: Study of weight change under controlled humidity conditions, samples were placed in open vials, which were placed in closed controlled-humidity jars. Relative humidities were controlled using saturated aqueous salt solutions: 58% RH, NaBr; 75% RH, (NH4)2 SO4; 76%, sodium acetate; 84% RH, KBr.
A possible cause of the observed weight loss is that some reaction solvent (toluene in this case) from the preparation of SPM remained on the solid and evaporated in the humidity jars. To test this theory, it was decided to prepare SPM, show it to be solvent-free, and repeat the water uptake studies. Dichloromethane was chosen as the organic solvent for the preparation rather than toluene because its lower boiling point should allow it to be removed from the solid more easily and completely. SPM was made by stirring a slurry of SPA and one equivalent of water in dichloromethane for 2 days, then isolation by filtration and air-drying of the solid SPM.
The remainder of the SPM sample was allowed to dry in an open jar under ambient conditions for about 1 week. It was then characterized by XRPD elemental analysis, and Karl Fischer (KF) analysis. The sample appears to be pure SPM containing very little, if any, residual solvent.
Both SPM and SPA increased in weight about 20% when equilibrium was reached (constant weight) at each humidity utilized. The samples were analyzed by XRPD after completion of the water uptake experiments. […] The nature of this form has not been determined.

O=C1NC(=O)C(c2ccccc2)(c2ccccc2)N1 [SPM, sodium phenytoin monohydrate]
sample weight (58% RH, day 0 (starting weight), monohydrate): 1.5057 g | change in starting weight (58% RH, day 1, monohydrate): +0.0186 g | sample weight (58% RH, day 1, monohydrate): 1.5243 g | change in starting weight (58% RH, day 2, monohydrate): +0.0269 g | sample weight (58% RH, day 2, monohydrate): 1.5326 g | change in starting weight (58% RH, day 3, monohydrate): +0.0384 g | sample weight (58% RH, day 3, monohydrate): 1.5441 g | change in starting weight (58% RH, day 4, monohydrate): +0.0510 g | sample weight (58% RH, day 4, monohydrate): 1.5567 g | change in starting weight (58% RH, day 5, monohydrate): +0.0620 g | sample weight (58% RH, day 5, monohydrate): 1.5677 g | change in starting weight (58% RH, day 6, monohydrate): +0.0717 g | sample weight (58% RH, day 6, monohydrate): 1.5774 g | change in starting weight (58% RH, day 7, monohydrate): +0.0816 g | sample weight (58% RH, day 7, monohydrate): 1.5873 g | change in starting weight (58% RH, day 8, monohydrate): +0.0940 g | sample weight (58% RH, day 8, monohydrate): 1.5997 g | change in starting weight (58% RH, day 10, monohydrate): +0.1185 g | sample weight (58% RH, day 10, monohydrate): 1.6242 g | change in starting weight (58% RH, day 11, monohydrate): +0.1340 g | sample weight (58% RH, day 11, monohydrate): 1.6397 g | change in starting weight (58% RH, day 12, monohydrate): +0.1486 g | sample weight (58% RH, day 12, monohydrate): 1.6543 g | change in starting weight (58% RH, day 13, monohydrate): +0.1555 g | sample weight (58% RH, day 13, monohydrate): 1.6612 g | change in starting weight (58% RH, day 14, monohydrate): +0.1633 g | sample weight (58% RH, day 14, monohydrate): 1.6690 g | change in starting weight (58% RH, day 15, monohydrate): +0.1719 g | sample weight (58% RH, day 15, monohydrate): 1.6776 g | change in starting weight (58% RH, day 16, monohydrate): +0.1794 g | sample weight (58% RH, day 16, monohydrate): 1.6851 g | change in starting weight (58% RH, day 17, monohydrate): +0.1860 g | sample weight (58% RH, day 17, monohydrate): 1.6917 g | change in starting weight (58% RH, day 21, monohydrate): +0.2176 g | sample weight (58% RH, day 21, monohydrate): 1.7233 g | change in starting weight (58% RH, day 23, monohydrate): +0.2323 g | sample weight (58% RH, day 23, monohydrate): 1.7380 g | change in starting weight (58% RH, day 26, monohydrate): +0.2525 g | sample weight (58% RH, day 26, monohydrate): 1.7582 g | change in starting weight (58% RH, day 35): +0.2556 g | sample weight (58% RH, day 35): 1.7613 g | change in starting weight (58% RH, day 42): +0.2511 g | sample weight (58% RH, day 42): 1.7568 g | Percent change based on average of final two weights (58% RH, monohydrate): +17% | sample weight (75% RH, day 0 (starting weight), monohydrate): 1.5013 g | change in starting weight (75% RH, day 1, monohydrate): +0.0470 g | sample weight (75% RH, day 1, monohydrate): 1.5483 g | change in starting weight (75% RH, day 2, monohydrate): +0.0930 g | sample weight (75% RH, day 2, monohydrate): 1.5943 g | change in starting weight (75% RH, day 3, monohydrate): +0.1386 g | sample weight (75% RH, day 3, monohydrate): 1.6399 g | change in starting weight (75% RH, day 4, monohydrate): +0.1819 g | sample weight (75% RH, day 4, monohydrate): 1.6832 g | change in starting weight (75% RH, day 5, monohydrate): +0.2205 g | sample weight (75% RH, day 5, monohydrate): 1.7218 g | change in starting weight (75% RH, day 6, monohydrate): +0.2552 g | sample weight (75% RH, day 6, monohydrate): 1.7565 g | change in starting weight (75% RH, day 7, monohydrate): +0.2874 g | sample weight (75% RH, day 7, monohydrate): 1.7887 g | change in starting weight (75% RH, day 8, monohydrate): +0.2752 g | sample weight (75% RH, day 8, monohydrate): 1.7765 g | change in starting weight (75% RH, day 10, monohydrate): +0.2725 g | sample weight (75% RH, day 10, monohydrate): 1.7738 g | change in starting weight (75% RH, day 11, monohydrate): +0.2768 g | sample weight (75% RH, day 11, monohydrate): 1.7781 g | change in starting weight (75% RH, day 12, monohydrate): +0.1796 g | sample weight (75% RH, day 12, monohydrate): 1.7809 g | change in starting weight (75% RH, day 13, monohydrate): +0.2678 g | sample weight (75% RH, day 13, monohydrate): 1.7781 g | change in starting weight (75% RH, day 14, monohydrate): +0.2755 g | sample weight (75% RH, day 14, monohydrate): 1.7768 g | change in starting weight (75% RH, day 15, monohydrate): +0.2755 g | sample weight (75% RH, day 15, monohydrate): 1.7768 g | change in starting weight (75% RH, day 16, monohydrate): +0.2761 g | sample weight (75% RH, day 16, monohydrate): 1.7774 g | change in starting weight (75% RH, day 17, monohydrate): +0.2741 g | sample weight (75% RH, day 17, monohydrate): 1.7754 g | Percent change based on average of final two weights (75% RH, monohydrate): +18% | sample weight (84% RH, day 0 (starting weight), monohydrate): 1.5068 g | change in starting weight (84% RH, day 1, monohydrate): +0.0595 g | sample weight (84% RH, day 1, monohydrate): 1.5663 g | change in starting weight (84% RH, day 2, monohydrate): +0.1159 g | sample weight (84% RH, day 2, monohydrate): 1.6227 g | change in starting weight (84% RH, day 3, monohydrate): +0.1762 g | sample weight (84% RH, day 3, monohydrate): 1.6830 g | change in starting weight (84% RH, day 4, monohydrate): +0.2309 g | sample weight (84% RH, day 4, monohydrate): 1.7377 g | change in starting weight (84% RH, day 5, monohydrate): +0.2801 g | sample weight (84% RH, day 5, monohydrate): 1.7869 g | change in starting weight (84% RH, day 6, monohydrate): +0.2965 g | sample weight (84% RH, day 6, monohydrate): 1.8033 g | change in starting weight (84% RH, day 7, monohydrate): +0.2910 g | sample weight (84% RH, day 7, monohydrate): 1.7978 g | change in starting weight (84% RH, day 8, monohydrate): +0.2932 g | sample weight (84% RH, day 8, monohydrate): 1.8000 g | change in starting weight (84% RH, day 10, monohydrate): +0.2997 g | sample weight (84% RH, day 10, monohydrate): 1.8065 g | change in starting weight (84% RH, day 11, monohydrate): +0.3062 g | sample weight (84% RH, day 11, monohydrate): 1.8130 g | change in starting weight (84% RH, day 12, monohydrate): +0.3099 g | sample weight (84% RH, day 12, monohydrate): 1.8167 g | change in starting weight (84% RH, day 13, monohydrate): +0.3090 g | sample weight (84% RH, day 13, monohydrate): 1.8158 g | change in starting weight (84% RH, day 14, monohydrate): +0.3055 g | sample weight (84% RH, day 14, monohydrate): 1.8123 g | change in starting weight (84% RH, day 15, monohydrate): +0.2996 g | sample weight (84% RH, day 15, monohydrate): 1.8064 g | change in starting weight (84% RH, day 16, monohydrate): +0.2961 g | sample weight (84% RH, day 16, monohydrate): 1.8029 g | change in starting weight (84% RH, day 17, monohydrate): +0.2916 g | sample weight (84% RH, day 17, monohydrate): 1.7984 g | Percent change based on average of final two weights (84% RH, monohydrate): +20% | crystal form after completion of water uptake experiments (XRPD) (each humidity utilized): another hydrated crystal form was produced | increase in weight at equilibrium (constant weight) (each humidity utilized): about 20%
